Where two headings read alike, the source gives them in different places.
Key:
Experiment in all cases: Poison Plate Assay
Assay type in all cases: cell-based
Penicillium purpurogenum = Penicillium purpurogenum CBS 170.60, ppm total active ingredient, PDA, 22° C., two weeks
Description: (§1) [table] […] [table] MIC values (minimum inhibitory concentration in ppm total active ingredient) were noted and synergy was calculated using the Synergy Index method described by Kull et al. (Kull, […], and R. L. Mayer (1961) “Mixtures of quaternary ammonium compounds and long-chain fatty acids as antifungal agents” Applied Microbiology 9: 538-541; also see Zwart Voorspuij, A. J., and […] (1957) “Some aspects of the notions additivity, synergism and antagonism in the simultaneous activity of two antibacterial agents in vitro” Arch. intern. […] Steinberg, D. C. […] Petrocci, H. A. Green, and J. J. Merianos (1977) “Antimicrobial composition” U.S. Pat. […] MIC), • Qa is the concentration of compound A in ppm, in the mixture, which produced an end point (e.g. MIC), • QB is the concentration of compound B in ppm, acting alone, which produced an end point (e.g. MIC), • Qb is the concentration of compound B in ppm, in the mixture, which produced an end point (e.g. MIC). […] When the SI is equal to 1.0, additivity is indicated.

Rhodoturula rubra = conditions: 336 h, Rhodoturula rubra B 52183, ppm total active ingredient, PDA, 22° C., two weeks, read-out: MIC-values in ppm (minimum inhibitory concentration)
Description: as §1

Pseudomonas aeruginosa = Pseudomonas aeruginosa NCIB 8295, ppm total active ingredient, Tryptose Agar, 27° C., one week
Description: as §1

[1] = imazalil with silver perchlorate, label = % imazalil + % silver perchlorate

C=CCOC(Cn1ccnc1)c1ccc(Cl)cc1Cl (stereo not drawn) [imazalil]
MIC (Penicillium purpurogenum; CBS170, 336 h, imazalil with silver nitrate, label = % imazalil + % silver nitrate, read-out: MIC-values in ppm (minimum inhibitory concentration)): 158 µg/mL
MIC-values in ppm (minimum inhibitory concentration) (Penicillium purpurogenum; [1]): 158 ppm
MIC (Rhodoturula rubra; imazalil with silver nitrate, label = % imazalil + % silver nitrate): 158 µg/mL
MIC (Rhodoturula rubra; [1]): 119 µg/mL
MIC (Pseudomonas aeruginosa; NCIB8295, 168 h, imazalil with silver nitrate, label = % imazalil + % silver nitrate, read-out: MIC-values in ppm (minimum inhibitory concentration)): 667 µg/mL
MIC-values in ppm (minimum inhibitory concentration) (Pseudomonas aeruginosa; [1]): 667 ppm
